# Assay results: patent publication US20260297042A1, “BIARYLAMIDE DERIVATIVES AND THEIR USE AS PKMYT1 INHIBITORS” (CANCER RESEARCH TECHNOLOGY LIMITED, priority 2023, published 2026)
# What was measured:
# Human PKMYT1 = target: T1, Human PKMYT1 (Homo sapiens, UniProt Q99640); assay: PKMYT1 biochemical ADP-Glo enzymatic assay
# T1 construct: Human PKMYT1 75-362 was cloned as a TEV cleavable 6xHis fusion; 6xHis (TEV cleavable) (cleaved yes); made in house; host or cells: bacterial cells
# T1 sequence (Q99640 75-362): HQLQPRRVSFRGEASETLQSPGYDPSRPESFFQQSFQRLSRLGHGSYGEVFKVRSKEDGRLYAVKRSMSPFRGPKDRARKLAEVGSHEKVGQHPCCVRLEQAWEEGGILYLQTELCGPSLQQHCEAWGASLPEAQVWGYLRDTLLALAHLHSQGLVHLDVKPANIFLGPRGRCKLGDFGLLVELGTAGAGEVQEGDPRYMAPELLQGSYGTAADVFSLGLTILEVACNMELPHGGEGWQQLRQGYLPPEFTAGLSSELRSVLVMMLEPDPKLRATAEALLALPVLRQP
# Description: Human PKMYT1 75-362 was cloned as a TEV cleavable 6xHis fusion in bacterial cells. After purification on a Ni++HiTrap Chelating HP column, the His-tag was cleaved using TEV protease. Cleaved PKMYT1 was further purified on a Superdex 200 16/600 sizing column. The fractions containing PKMYT1 were pooled and concentrated using an ultrafiltration centrifugal protein concentrator. The purified protein was aliquoted, flash frozen in liquid nitrogen, and stored at −80° C.
# PKMYT1 biochemical assay: Inhibition of PKMYT1 was assessed using the ADP-Glo™ Max Detection System from Promega. This assay detects the production of ADP from ATP by PKMYT1 via a two-step process ultimately involving the conversion of ADP to ATP with the latter converted to light in a coupled reaction with luciferase/luciferin. Inhibition of PKMYT1 by small molecule inhibitors results in a retardation of luminescence above background. The intrinsic ATPase activity of PKMYT1 was assessed according to the following protocol. Compounds were dosed into Corning white low volume 384 well assay plates using an Echo acoustic dispenser to generate 10-point curves spanning a 3-fold dilution series. DMSO (no inhibitor) control wells were prepared to benchmark the maximum and minimum signals in the presence and absence of PKMYT1, respectively. The PKMYT1 kinase domain was purified in-house, as described above, and added to the wells at a final concentration of 15 nM in a buffer of 50 mM HEPES (pH 7.5), 10 mM MgCl2, 1 mM EGTA, 0.01% Brij-35, 1% DMSO. 500 µM ATP was added to start the reaction with the final assay volume being 4 μl. The plate was then incubated for 60 minutes at 26° C. before the addition of 4 μl of ADP-Glo Reagent to stop the reaction and deplete the unconsumed ATP. Following a further 60 minute incubation the assay signal was developed by the addition of 8 μl ADP-Glo Max Detection Reagent. After 60 minutes the luminescence signal was read on a PHERAStar FS microplate reader (BMG Labtech).
# (§1) Data analysis: Data was captured and analysed within the Dotmatics Studies software module where dose response curves were generated and IC50 values determined. Acceptance and verification of data followed strict in-house business rules which are summarised as follows. […] Technical and biological replicates of each compound are routinely tested and replicate IC50 values must fall within 3-fold of each other with dose response curves showing ‘goodness of fit’ r2 values >0.9. Failure to meet any of these defined criteria result in rejection of data.
# WEE1 = target: T2, WEE1 (Homo sapiens, UniProt P30291); assay: Selectivity versus WEE1 assay (ADP-Glo enzymatic assay); format: biochemical; details: banded; for IC50: ADP-Glo, 15 nM WEE1, 60 minutes at 26° C.; for PKMYT1 vs. WEE1 selectivity: fold difference in selectivity for PKMYT1 over WEE1, ">N" = at least in this band but could be higher
# T2 construct: purchased Thermo Fisher PR7373A
# Description: Selectivity versus WEE1 assay: Selectivity was established using the same format as outlined for PKMYT1. After dosing of compounds via the Echo acoustic dispenser—as described above—WEE1 (Thermo Fisher PR7373A) was added to each well at a final concentration of 15 nM in a buffer of 50 mM HEPES (pH 7.5), 10 mM MgCl2, 1 mM EGTA, 0.01% Brij-35, 1% DMSO. 30 µM ATP was added to start the reaction with the final assay volume being 4 μl. The plate was then incubated for 60 minutes at 26° C. before the addition of 4 μl of ADP-Glo Reagent. Following a further 60 minute incubation the assay signal was developed by the addition of 8 μl ADP-Glo Detection Reagent. After 60 minutes the luminescence signal was read on a PHERAStar FS microplate reader (BMG Labtech).
# as §1
# [1] = ADP-Glo, 15 nM PKMYT1 kinase domain, 500 µM ATP, 60 minutes at 26° C., banded
# T2 sequence (P30291 whole entry): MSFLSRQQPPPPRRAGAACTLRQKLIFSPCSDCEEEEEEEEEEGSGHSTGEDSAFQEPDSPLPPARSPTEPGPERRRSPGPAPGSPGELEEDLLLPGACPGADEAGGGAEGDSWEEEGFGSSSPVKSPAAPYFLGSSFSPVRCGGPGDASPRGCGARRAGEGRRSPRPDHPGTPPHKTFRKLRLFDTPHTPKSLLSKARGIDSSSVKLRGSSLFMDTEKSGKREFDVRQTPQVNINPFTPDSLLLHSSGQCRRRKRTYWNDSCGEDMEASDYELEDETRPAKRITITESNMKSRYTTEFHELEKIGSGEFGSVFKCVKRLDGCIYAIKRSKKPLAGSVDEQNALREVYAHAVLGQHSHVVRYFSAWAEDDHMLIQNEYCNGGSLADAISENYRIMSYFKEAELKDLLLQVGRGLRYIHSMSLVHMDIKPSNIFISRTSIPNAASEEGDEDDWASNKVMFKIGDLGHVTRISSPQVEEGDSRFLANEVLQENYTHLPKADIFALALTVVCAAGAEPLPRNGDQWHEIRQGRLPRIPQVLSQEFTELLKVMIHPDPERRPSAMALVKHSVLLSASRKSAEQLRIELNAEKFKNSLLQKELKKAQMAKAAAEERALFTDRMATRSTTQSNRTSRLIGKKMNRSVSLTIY
SMILES,IC50 (Human PKMYT1; [1]) [nM],"IC50 (Human PKMYT1; PKMYT1 biochemical ADP-Glo enzymatic assay, Comparison Data 1) [nM]",improvement in PKMYT1 IC50 as compared to REF-001 (Human PKMYT1; vs REF-001) [fold],improvement in PKMYT1 IC50 as compared to REF-002 (Human PKMYT1; vs REF-002) [fold],IC50 (WEE1) [nM],PKMYT1 vs. WEE1 selectivity (WEE1),"IC50 (Human PKMYT1; PKMYT1 biochemical ADP-Glo enzymatic assay, Comparison Data 2) [nM]",improvement in PKMYT1 IC50 as compared to REF-003 (Human PKMYT1; vs REF-003) [fold],improvement in PKMYT1 IC50 as compared to REF-004 (Human PKMYT1; vs REF-004) [fold]
"Cc1ccc(O)c(C)c1NC(=O)c1cnc(N)s1 [BAA-001, 2-Amino-N-(3-hydroxy-2,6-dimethyl-phenyl)thiazole-5-carboxamide]",50 to 1000,327,163,82,> 11000,X (100-<1000 fold),–,–,–
"Cc1ccc(O)c(C)c1NC(=O)c1cnc(Nc2ccn(CCCO)n2)s1 [BAA-002, N-(3-Hydroxy-2,6-dimethyl-phenyl)-2-[[1-(3-hydroxypropyl)pyrazol-3-yl]amino]thiazole-5-carboxamide]",< 50,–,–,–,1000 to 11000,W (10-<100 fold),–,–,–
"Cc1ccc(O)c(C)c1NC(=O)c1cnc(Nc2cc[nH]n2)s1 [BAA-003, N-(3-hydroxy-2,6-dimethyl-phenyl)-2-(1H-pyrazol-3-ylamino)thiazole-5-carboxamide]",1000 to 11000,–,–,–,> 11000,W (10-<100 fold),–,–,–
"Cc1ccc(O)c(C)c1NC(=O)c1cnc(Nc2ccn(C)n2)s1 [BAA-004, N-(3-hydroxy-2,6-dimethyl-phenyl)-2-[(1-methylpyrazol-3-yl)amino]thiazole-5-carboxamide]",50 to 1000,–,–,–,1000 to 11000,X (100-<1000 fold),55,987,> 1800
"CCn1ccc(Nc2ncc(C(=O)Nc3c(C)ccc(O)c3C)s2)n1 [BAA-005, 2-[(1-ethylpyrazol-3-yl)amino]-N-(3-hydroxy-2,6-dimethyl-phenyl)thiazole-5-carboxamide]",< 50,–,–,–,1000 to 11000,X (100-<1000 fold),–,–,–
"CCCn1ccc(Nc2ncc(C(=O)Nc3c(C)ccc(O)c3C)s2)n1 [BAA-006, N-(3-hydroxy-2,6-dimethyl-phenyl)-2-[(1-propylpyrazol-3-yl)amino]thiazole-5-carboxamide]",50 to 1000,–,–,–,> 11000,X (100-<1000 fold),–,–,–
"Cc1ccc(O)c(C)c1NC(=O)c1cnc(Nc2ccn(C3COC3)n2)s1 [BAA-007, N-(3-hydroxy-2,6-dimethyl-phenyl)-2-[[1-(oxetan-3-yl)pyrazol-3-yl]amino]thiazole-5-carboxamide]",< 50,–,–,–,50 to 1000,W (10-<100 fold),–,–,–
"Cc1ccc(O)c(C)c1NC(=O)c1cnc(Nc2ccn(C(C)C)n2)s1 [BAA-008, N-(3-hydroxy-2,6-dimethyl-phenyl)-2-[(1-isopropylpyrazol-3-yl)amino]thiazole-5-carboxamide]",50 to 1000,–,–,–,1000 to 11000,X (100-<1000 fold),–,–,–
"Cc1ccc(O)c(C)c1NC(=O)c1cnc(Nc2ccon2)s1 [BAA-009, N-(3-hydroxy-2,6-dimethyl-phenyl)-2-(isoxazol-3-ylamino)thiazole-5-carboxamide]",< 50,–,–,–,> 11000,X (100-<1000 fold),–,–,–
"Cc1ccc(O)c(C)c1NC(=O)c1cnc(Nc2ccnn2C)s1 [BAA-010, N-(3-hydroxy-2,6-dimethyl-phenyl)-2-[(2-methylpyrazol-3-yl)amino]thiazole-5-carboxamide]",50 to 1000,–,–,–,> 11000,Y (1000-5000 fold),–,–,–

# The next lines start with the values.
IC50 (Human PKMYT1; [1]) [nM],"IC50 (Human PKMYT1; PKMYT1 biochemical ADP-Glo enzymatic assay, Comparison Data 1) [nM]",improvement in PKMYT1 IC50 as compared to REF-001 (Human PKMYT1; vs REF-001) [fold],improvement in PKMYT1 IC50 as compared to REF-002 (Human PKMYT1; vs REF-002) [fold],IC50 (WEE1) [nM],PKMYT1 vs. WEE1 selectivity (WEE1),"IC50 (Human PKMYT1; PKMYT1 biochemical ADP-Glo enzymatic assay, Comparison Data 2) [nM]",improvement in PKMYT1 IC50 as compared to REF-003 (Human PKMYT1; vs REF-003) [fold],improvement in PKMYT1 IC50 as compared to REF-004 (Human PKMYT1; vs REF-004) [fold],SMILES
< 50,–,–,–,1000 to 11000,W (10-<100 fold),–,–,–,Cc1ccc(O)c(C)c1NC(=O)c1cnc(Nc2ccn(CCO)n2)s1 [BAA-011]
50 to 1000,–,–,–,1000 to 11000,W (10-<100 fold),–,–,–,"CCCCn1ccc(Nc2ncc(C(=O)Nc3c(C)ccc(O)c3C)s2)n1 [BAA-012, 2-[(1-butylpyrazol-3-yl)amino]-N-(3-hydroxy-2,6-dimethyl-phenyl)thiazole-5-carboxamide]"
< 50,–,–,–,1000 to 11000,W (10-<100 fold),–,–,–,"Cc1ccc(O)c(C)c1NC(=O)c1cnc(Nc2ccn(C3CCCC3)n2)s1 [BAA-014, 2-[(1-cyclopentylpyrazol-3-yl)amino]-N-(3-hydroxy-2,6-dimethyl-phenyl)thiazole-5-carboxamide]"
< 50,–,–,–,1000 to 11000,X (100-<1000 fold),–,–,–,"Cc1ccc(O)c(C)c1NC(=O)c1cnc(Nc2ccn(C3CCCCC3)n2)s1 [BAA-015, 2-[(1-cyclohexylpyrazol-3-yl)amino]-N-(3-hydroxy-2,6-dimethyl-phenyl)thiazole-5-carboxamide]"
50 to 1000,–,–,–,> 11000,>X (100-<1000 fold),–,–,–,Cc1ccc(O)c(C)c1NC(=O)c1cnc(Nc2nc(C(F)(F)F)cs2)s1 [BAA-017]
< 50,–,–,–,> 11000,X (100-<1000 fold),–,–,–,Cc1ccc(O)c(C)c1NC(=O)c1cnc(Nc2nc(CO)cs2)s1 [BAA-018]
50 to 1000,–,–,–,> 11000,X (100-<1000 fold),–,–,–,"Cc1ccc(O)c(C)c1NC(=O)c1cnc(Nc2ccn(CC(F)(F)F)n2)s1 [BAA-019, N-(3-hydroxy-2,6-dimethyl-phenyl)-2-[[1-(2,2,2-trifluoroethyl)pyrazol-3-yl]amino]thiazole-5-carboxamide]"
50 to 1000,–,–,–,> 11000,>X (100-<1000 fold),–,–,–,"Cc1ccc(O)c(C)c1NC(=O)c1cnc(Nc2sccc2C(N)=O)s1 [BAA-021, 2-[(3-carbamoyl-2-thienyl)amino]-N-(3-hydroxy-2,6-dimethyl-phenyl)thiazole-5-carboxamide]"
50 to 1000,–,–,–,1000 to 11000,W (10-<100 fold),–,–,–,CCOC(=O)CCCn1ccc(Nc2ncc(C(=O)Nc3c(C)ccc(O)c3C)s2)n1 [BAA-022]
< 50,–,–,–,1000 to 11000,X (100-<1000 fold),–,–,–,CCOC(=O)Cn1ccc(Nc2ncc(C(=O)Nc3c(C)ccc(O)c3C)s2)n1 [BAA-023]
< 50,–,–,–,1000 to 11000,X (100-<1000 fold),–,–,–,CCOC(=O)c1cc(Nc2ncc(C(=O)Nc3c(C)ccc(O)c3C)s2)nn1C [BAA-024]
50 to 1000,–,–,–,> 11000,X (100-<1000 fold),–,–,–,"Cc1ccc(O)c(C)c1NC(=O)c1cnc(Nc2ccn(C(F)F)n2)s1 [BAA-025, 2-[[1-(difluoromethyl)pyrazol-3-yl]amino]-N-(3-hydroxy-2,6-dimethyl-phenyl)thiazole-5-carboxamide]"
50 to 1000,–,–,–,> 11000,X (100-<1000 fold),–,–,–,"Cc1ccc(O)c(C)c1NC(=O)c1cnc(Nc2ncco2)s1 [BAA-027, N-(3-hydroxy-2,6-dimethyl-phenyl)-2-(oxazol-2-ylamino)thiazole-5-carboxamide]"
< 50,–,–,–,> 11000,X (100-<1000 fold),–,–,–,"Cc1ccc(O)c(C)c1NC(=O)c1cnc(Nc2nncs2)s1 [BAA-028, N-(3-hydroxy-2,6-dimethyl-phenyl)-2-(1,3,4-thiadiazol-2-ylamino)thiazole-5-carboxamide]"
